Measurements taken from ChEMBL document CHEMBL3525920, “CYP4F enzymes are responsible for the elimination of fingolimod (FTY720), a novel treatment of relapsing multiple sclerosis” (Drug Metab Dispos, 2011).
One block for each molecule: values may come before it.

Tests used:
[1] = Terminal half life in human; type: ADME, organism-based; set-up: dosed compound name Fingolimod; details: in vivo, read-out: beta t1/2 (converted)
[2] = Retention time of the compound by symmetry C18 column based LC-MS analysis; type: physicochemical
Cytochrome P450 4F3 = Cytochrome P450 4F3 (Homo sapiens, UniProt Q08477); test: Activity at human recombinant CYP4F3B expressed in baculovirus-infected BTI-TN-5B1-4 insect cell microsomes assessed as relative abundance of compound formation treated with [14C]fingolimod at 100 uM after 30 mins by HPLC-RA analysis; type: ADME; details: bti-tn-5b1-4, 0.5 h
[3] = Retention time of the compound by C18 advantage armor column based LC-MS analysis; type: physicochemical
Cytochrome P450 2D6 = Cytochrome P450 2D6 (Homo sapiens, UniProt P10635); test: Activity at human recombinant CYP2D6 expressed in baculovirus-infected BTI-TN-5B1-4 insect cell microsomes assessed as relative abundance of compound formation treated with [14C]fingolimod at 20 uM after 30 mins by HPLC-RA analysis; type: ADME; details: bti-tn-5b1-4, 0.5 h
Cytochrome P450 4F2 [4] = target: T1, Cytochrome P450 4F2 (Homo sapiens, UniProt P78329); test: Activity at human recombinant CYP4F2 expressed in baculovirus-infected BTI-TN-5B1-4 insect cell microsomes assessed as relative abundance of compound formation treated with [14C]fingolimod at 100 uM after 30 mins by HPLC-RA analysis; type: ADME; details: bti-tn-5b1-4, 0.5 h
T1 sequence (P78329 whole entry): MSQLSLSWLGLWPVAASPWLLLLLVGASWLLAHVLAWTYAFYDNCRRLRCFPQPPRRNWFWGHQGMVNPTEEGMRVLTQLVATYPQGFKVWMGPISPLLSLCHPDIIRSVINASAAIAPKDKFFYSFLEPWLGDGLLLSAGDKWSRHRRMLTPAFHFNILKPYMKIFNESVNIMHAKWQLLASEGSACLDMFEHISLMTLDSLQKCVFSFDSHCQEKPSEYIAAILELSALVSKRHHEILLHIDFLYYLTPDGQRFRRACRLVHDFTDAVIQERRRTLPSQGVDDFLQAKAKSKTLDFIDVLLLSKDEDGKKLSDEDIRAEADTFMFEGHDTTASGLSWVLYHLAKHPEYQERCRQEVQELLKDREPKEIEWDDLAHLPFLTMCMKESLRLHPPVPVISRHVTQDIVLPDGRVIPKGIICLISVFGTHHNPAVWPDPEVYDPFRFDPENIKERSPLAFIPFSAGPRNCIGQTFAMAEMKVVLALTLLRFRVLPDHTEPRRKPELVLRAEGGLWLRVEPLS

[5] = Retention time of the compound by long gradient-based HPLC-RA analysis; type: physicochemical
Cytochrome P450 4F2 [6] = target: T1, Cytochrome P450 4F2; test: Inhibition of human CYP4F2 in human liver microsomes assessed as fingolimod metabolism; type: ADME
Cytochrome P450 4F2 [7] = target: T1, Cytochrome P450 4F2; test: Inhibition of human recombinant CYP4F2 assessed as fingolimod metabolism; type: ADME
[8] = substrate: CCCCCCCCc1ccc(CCC(N)(CO)CO)cc1; test: Activity at human recombinant CYP4F2 expressed in baculovirus-infected BTI-TN-5B1-4 insect cell microsomes assessed as metabolite formation after 15 mins by Eadie-Hofstee plot analysis; type: ADME

Sequence of Cytochrome P450 2D6 (P10635 whole entry): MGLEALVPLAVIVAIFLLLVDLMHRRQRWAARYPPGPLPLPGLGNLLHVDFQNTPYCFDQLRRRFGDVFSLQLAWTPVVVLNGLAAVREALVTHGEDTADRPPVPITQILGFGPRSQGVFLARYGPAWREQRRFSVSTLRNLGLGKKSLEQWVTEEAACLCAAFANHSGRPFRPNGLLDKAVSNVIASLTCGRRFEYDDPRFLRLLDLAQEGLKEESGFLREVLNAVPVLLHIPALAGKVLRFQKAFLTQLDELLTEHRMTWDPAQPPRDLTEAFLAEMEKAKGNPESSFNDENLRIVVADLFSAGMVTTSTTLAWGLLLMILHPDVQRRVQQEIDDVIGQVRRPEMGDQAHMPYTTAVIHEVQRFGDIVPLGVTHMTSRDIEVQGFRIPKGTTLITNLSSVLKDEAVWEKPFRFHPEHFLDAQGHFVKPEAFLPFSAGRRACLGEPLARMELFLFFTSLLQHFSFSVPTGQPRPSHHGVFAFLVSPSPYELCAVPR
Sequence of Cytochrome P450 4F3 (Q08477 whole entry): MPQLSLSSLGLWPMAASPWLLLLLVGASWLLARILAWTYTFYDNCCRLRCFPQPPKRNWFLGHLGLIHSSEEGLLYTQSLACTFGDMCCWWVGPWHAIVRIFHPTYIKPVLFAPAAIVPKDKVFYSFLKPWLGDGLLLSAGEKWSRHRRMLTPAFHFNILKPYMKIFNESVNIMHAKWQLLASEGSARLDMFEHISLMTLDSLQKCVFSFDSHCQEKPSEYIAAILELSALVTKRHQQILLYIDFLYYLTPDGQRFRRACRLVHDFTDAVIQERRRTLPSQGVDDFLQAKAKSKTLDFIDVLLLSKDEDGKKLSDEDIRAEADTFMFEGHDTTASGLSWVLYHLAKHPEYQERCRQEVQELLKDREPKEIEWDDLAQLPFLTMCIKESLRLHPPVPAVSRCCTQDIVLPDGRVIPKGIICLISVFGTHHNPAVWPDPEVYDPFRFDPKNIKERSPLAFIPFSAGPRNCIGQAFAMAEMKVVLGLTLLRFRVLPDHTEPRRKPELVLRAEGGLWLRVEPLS

- half-life [1]: 120 h
Molecule: CCCCCCCCc1ccc(CCC(N)(CO)CO)cc1 [FINGOLIMOD]

- Retention_time [2]: 32.1 min
- Compound recovery (Cytochrome P450 4F3): 0.84%
- Retention_time [3]: 35.4 min
- Compound recovery (Cytochrome P450 2D6): 1.02%
- Compound recovery (Cytochrome P450 4F2 [4]): 2.99%
- Retention_time [5]: 34.7 min
Molecule: NC(CO)(CO)CCc1ccc(CCCCCCCCO)cc1

The remaining lines, values behind:

Molecule: CC(=O)N1CCN(c2ccc(OCC3COC(Cn4ccnc4)(c4ccc(Cl)cc4Cl)O3)cc2)CC1 (stereo unspecified) [KETOCONAZOLE]
- Ki (Cytochrome P450 4F2 [6]): 740 nM
- IC50 (Cytochrome P450 4F2 [7]): 1600 nM

B1: Cytochrome P450 4F2 (Homo sapiens) (protein)
chain: T1 sequence (P78329 whole entry)
- Km [8]: 45 µM
- Vmax [8]: 0.00105 µmol/min
